Measured values: patent US20240016924A1, “NEW ADJUVANT TO IMPROVE THE INNATE IMMUNITY” (INSTITUT NATIONAL DE LA SANTÉ ET DE LA RECHERCHE MÉDICALE, priority 2020, published 2024)

System: RPMI 2650 cells
Test: TSLP secretion in nasal RPMI 2650 cell culture supernatants (ELISA)
Format: cell-based, human
Description: Nasal RPMI 2650 cells (isolated from the human nasal septum, squamous cell carcinoma, ATCC) were grown in MEMα (Minimum Essential Medium α, Thermo Fisher) supplemented with 10% fetal calf serum (FCS, Eurobio, Courtaboeuf, France) and 1% penicillin/streptomycin.
TSLP, IL-25/IL-17E, IL-33, IFN-γ, IL-10, IL-12/23p40, IL-4, IL-5, IL-6, IL-13, TNF-α, MMP-9, IL-8/CXCL8, […], MDC/CCL22, TARC/CCL17, APRIL and BAFF were measured in culture supernatants from indicated experiments with custom multiplex Luminex assays (Bio-techne) according to the manufacturer's instructions. Additionally, when indicated TSLP was measured in culture supernatants by enzyme-linked immunosorbent assay (ELISA) with a limit of detection of 8 pg/ml (Thermo Fisher) according to the manufacturer's instructions.
We first investigate whether P1 induced TSLP secretion in nasal epithelium. Therefore, we cultured human nasal epithelial cells (RPMI 2650) with P1 Glade B for 2-24 hours at 37° C. and analyzed the culture supernatants for TSLP secretion.

SQNQQEKNEQELLELDKWASLWNWFNITNWLWYIK [P1]
TSLP secretion time course (2-24 hours at 37° C.): reaching a plateau from 4 to 24 h
TSLP secretion (P1 5, 25, 125 μM, 2 h to 4 h, compared with medium and scramble peptides): upregulates TSLP secretion in a dose-dependent manner
TSLP secretion, trimeric versus monomeric state (P1 at 125 μM versus 5 μM and 25 μM): significantly higher secretion of TSLP
Secretion of TSLP (peptide at 125 uM, 4 hours, n=5): 52.3 ± 3.4 pg/mL
